Assay results reported in patent US8263606B2 (Xenon Pharmaceuticals Inc., priority 2008, dated 2012).

Tests used:
CYP3A4 = CYP3A4 (Homo sapiens, UniProt P08684); test: Cytochrome P450 (CYP450) Inhibition Assay, CYP3A4 (Vivid fluorescence, BOMCC substrate); conditions: human, P450 Baculosomes (recombinant CYP3A4), probe BOMCC (Vivid substrate)
sodium channel = test: Guanidine influx assay (14C-guanidine radiotracer flux, in vitro); format: cell-based, human or rat; conditions: guanidine influx assay using a known cell line that expresses a sodium channel
Procedure, shortened: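 Test agents at half-step dilutions around 1 μM are added to plated cells in low-sodium HEPES buffer, then an aconitine/14C-guanidine mixture; after ambient-temperature incubation, cells are washed and counted. IC50 comes from a sigmoidal fit.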

Chain of CYP3A4 (P08684 whole entry): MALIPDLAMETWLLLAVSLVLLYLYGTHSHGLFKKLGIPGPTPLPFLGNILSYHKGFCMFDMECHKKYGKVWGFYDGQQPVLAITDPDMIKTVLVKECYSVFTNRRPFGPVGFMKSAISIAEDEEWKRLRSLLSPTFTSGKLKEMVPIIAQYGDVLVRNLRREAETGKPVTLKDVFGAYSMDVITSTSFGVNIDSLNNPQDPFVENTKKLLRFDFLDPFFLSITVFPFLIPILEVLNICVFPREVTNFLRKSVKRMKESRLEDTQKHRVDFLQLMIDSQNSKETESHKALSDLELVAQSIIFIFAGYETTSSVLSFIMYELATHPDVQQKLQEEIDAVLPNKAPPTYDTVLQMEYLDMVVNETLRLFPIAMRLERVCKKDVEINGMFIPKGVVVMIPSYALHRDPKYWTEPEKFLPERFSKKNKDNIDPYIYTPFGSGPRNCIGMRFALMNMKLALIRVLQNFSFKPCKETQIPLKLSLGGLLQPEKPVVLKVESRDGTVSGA

SMILES | inhibition at 10 µM (CYP3A4) | melting point | IC50 (sodium channel)
COc1ccccc1NC(=O)c1ccccc1CN1C(=O)C2(COc3cc4c(cc32)CCO4)c2ccccc21 (stereo not drawn) [Example 12.11, N-(2-methoxyphenyl)-2-[(2′-oxo-5,6-dihydrospiro[benzo[1,2-b:5,4-b′]difuran-3,3′-indol]-1′(2′H)-yl)methyl]benzamide] | > 50% | 172 to 174 °C | 1000 to 10000 nM
O=C(Nc1ccccc1F)c1ccccc1CN1C(=O)C2(COc3cc4c(cc32)CCO4)c2ccccc21 (stereo not drawn) [Example 12.12, N-(2-fluorophenyl)-2-[(2′-oxo-5,6-dihydrospiro[benzo[1,2-b:5,4-b′]difuran-3,3′-indol]-1′(2′H)-yl)methyl]benzamide] | > 50% | 195 to 197 °C | 100 to 1000 nM
O=C(Nc1cccc(Cl)c1)c1ccccc1CN1C(=O)C2(COc3cc4c(cc32)CCO4)c2ccccc21 (stereo not drawn) [Example 12.13, N-(3-chlorophenyl)-2-[(2′-oxo-5,6-dihydrospiro[benzo[1,2-b:5,4-b′]difuran-3,3′-indol]-1′(2′H)-yl)methyl]benzamide] | > 50% | > 230 °C | 1000 to 10000 nM
Cc1c(F)cccc1NC(=O)c1ccccc1CN1C(=O)C2(COc3cc4c(cc32)CCO4)c2ccccc21 (stereo not drawn) [Example 12.14, N-(3-fluoro-2-methylphenyl)-2-[(2′-oxo-5,6-dihydrospiro[benzo[1,2-b:5,4-b′]difuran-3,3′-indol]-1′(2′H)-yl)methyl]benzamide] | > 50% | > 230 °C | 100 to 1000 nM
CCCCCCCNC(=O)c1ccccc1CN1C(=O)C2(COc3cc4c(cc32)CCO4)c2ccccc21 (stereo not drawn) [Example 12.15, N-heptyl-2-[(2′-oxo-5,6-dihydrospiro[benzo[1,2-b:5,4-b′]difuran-3,3′-indol]-1′(2′H)-yl)methyl]benzamide] | > 50% | 196 to 198 °C | 1000 to 10000 nM
O=C(NCc1ccccc1Cl)c1ccccc1CN1C(=O)C2(COc3cc4c(cc32)CCO4)c2ccccc21 (stereo not drawn) [Example 12.16, N-(2-chlorobenzyl)-2-[(2′-oxo-5,6-dihydrospiro[benzo[1,2-b:5,4-b′]difuran-3,3′-indol]-1′(2′H)-yl)methyl]benzamide] | > 50% | 148 to 150 °C | 100 to 1000 nM
O=C(c1ccccc1CN1C(=O)C2(COc3cc4c(cc32)CCO4)c2ccccc21)N1CCCCC1 (stereo not drawn) [Example 12.17, 1′-[2-(piperidin-1-ylcarbonyl)benzyl]-5,6-dihydrospiro[benzo[1,2-b:5,4-b′]difuran-3,3′-indol]-2′(1′H)-one] | > 50% | 168 to 170 °C | 1000 to 10000 nM
CCCCNC(=O)c1ccccc1CN1C(=O)C2(COc3cc4c(cc32)CCO4)c2ccccc21 (stereo not drawn) [Example 12.18, N-butyl-2-[(2′-oxo-5,6-dihydrospiro[benzo[1,2-b:5,4-b′]difuran-3,3′-indol]-1′(2′H)-yl)methyl]benzamide] | > 50% | 176 to 178 °C | 1000 to 10000 nM
Cc1cccc(NC(=O)c2ccccc2CN2C(=O)C3(COc4cc5c(cc43)CCO5)c3ccccc32)c1 (stereo not drawn) [Example 12.19, N-(3-methylphenyl)-2-[(2′-oxo-5,6-dihydrospiro[benzo[1,2-b:5,4-b′]difuran-3,3′-indol]-1′(2′H)-yl)methyl]benzamide] | > 50% | 229 to 231 °C | 1000 to 10000 nM
Cc1ccc(F)c(NC(=O)c2ccccc2CN2C(=O)C3(COc4cc5c(cc43)CCO5)c3ccccc32)c1 (stereo not drawn) [Example 12.20, N-(2-fluoro-5-methylphenyl)-2-[(2′-oxo-5,6-dihydrospiro[benzo[1,2-b:5,4-b′]difuran-3,3′-indol]-1′(2′H)-yl)methyl]benzamide] | > 50% | 214 to 216 °C | 1000 to 10000 nM
Cc1cccc(NC(=O)c2ccccc2CN2C(=O)C3(COc4cc5c(cc43)CCO5)c3ccccc32)c1C (stereo not drawn) [Example 12.21, N-(2,3-dimethylphenyl)-2-[(2′-oxo-5,6-dihydrospiro[benzo[1,2-b:5,4-b′]difuran-3,3′-indol]-1′(2′H)-yl)methyl]benzamide] | > 50% | > 230 °C | 1000 to 10000 nM
Cc1cccc(C)c1NC(=O)c1ccc(CN2C(=O)C3(COc4cc5c(cc43)CCO5)c3ccccc32)cc1 (stereo not drawn) [Example 12.35, N-(2,6-dimethylphenyl)-4-[(2′-oxo-5,6-dihydrospiro[benzo[1,2-b:5,4-b′]difuran-3,3′-indol]-1′(2′H)-yl)methyl]benzamide] | > 50% | > 250 °C | 1000 to 10000 nM
O=C(Nc1cccc(F)c1)c1ccc(CN2C(=O)C3(COc4cc5c(cc43)CCO5)c3ccccc32)cc1 (stereo not drawn) [Example 12.36, N-(3-fluorophenyl)-4-[(2′-oxo-5,6-dihydrospiro[benzo[1,2-b:5,4-b′]difuran-3,3′-indol]-1′(2′H)-yl)methyl]benzamide] | < 50% | > 250 °C | 100 to 1000 nM
CC(C)(C)CCNC(=O)CN1C(=O)C2(COc3cc4c(cc32)CCO4)c2ccccc21 (stereo not drawn) [Example 12.49, N-(3,3-dimethylbutyl)-2-(2′-oxo-5,6-dihydrospiro[benzo[1,2-b:5,4-b′]difuran-3,3′-indol]-1′(2′H)-yl)acetamide] | > 50% | 161 to 163 °C | 100 to 1000 nM
CC(C)OCCCNC(=O)CN1C(=O)C2(COc3cc4c(cc32)CCO4)c2ccccc21 (stereo not drawn) [Example 12.50, N-[3-(1-methylethoxy)propyl]-2-(2′-oxo-5,6-dihydrospiro[benzo[1,2-b:5,4-b′]difuran-3,3′-indol]-1′(2′H)-yl)acetamide] | > 50% | 149 to 151 °C | 100 to 1000 nM

Results, then the compound that gave them:

inhibition at 10 µM (CYP3A4) | melting point | IC50 (sodium channel) | SMILES
> 50% | 203 to 204 °C | 1000 to 10000 nM | CCc1ccccc1NC(=O)c1ccc(CN2C(=O)C3(COc4cc5c(cc43)CCO5)c3ccccc32)cc1 (stereo not drawn) [Example 12.34, N-(2-ethylphenyl)-4-[(2′-oxo-5,6-dihydrospiro[benzo[1,2-b:5,4-b′]difuran-3,3′-indol]-1′(2′H)-yl)methyl]benzamide]
< 50% | 249 to 251 °C | 100 to 1000 nM | Cc1ccc(NC(=O)c2ccc(CN3C(=O)C4(COc5cc6c(cc54)CCO6)c4ccccc43)cc2)c(C)c1 (stereo not drawn) [Example 12.37, N-(2,4-dimethylphenyl)-4-[(2′-oxo-5,6-dihydrospiro[benzo[1,2-b:5,4-b′]difuran-3,3′-indol]-1′(2′H)-yl)methyl]benzamide]
> 50% | 167 to 168 °C | 100 to 1000 nM | O=C(NCc1cccs1)c1ccc(CN2C(=O)C3(COc4cc5c(cc43)CCO5)c3ccccc32)cc1 (stereo not drawn) [Example 12.38, 4-[(2′-oxo-5,6-dihydrospiro[benzo[1,2-b:5,4-b′]difuran-3,3′-indol]-1′(2′H)-yl)methyl]-N-(thiophen-2-ylmethyl)benzamide]
> 50% | 190 to 191 °C | 100 to 1000 nM | CCNC(=O)c1ccc(CN2C(=O)C3(COc4cc5c(cc43)CCO5)c3ccccc32)cc1 (stereo not drawn) [Example 12.39, N-ethyl-4-[(2′-oxo-5,6-dihydrospiro[benzo[1,2-b:5,4-b′]difuran-3,3′-indol]-1′(2′H)-yl)methyl]benzamide]
< 50% | 182 to 183 °C | 100 to 1000 nM | COCCNC(=O)c1ccc(CN2C(=O)C3(COc4cc5c(cc43)CCO5)c3ccccc32)cc1 (stereo not drawn) [Example 12.40, N-(2-methoxyethyl)-4-[(2′-oxo-5,6-dihydrospiro[benzo[1,2-b:5,4-b′]difuran-3,3′-indol]-1′(2′H)-yl)methyl]benzamide]
> 50% | 84 to 85 °C | 100 to 1000 nM | CCOCCNC(=O)c1ccc(CN2C(=O)C3(COc4cc5c(cc43)CCO5)c3ccccc32)cc1 (stereo not drawn) [Example 12.41, N-(2-ethoxyethyl)-4-[(2′-oxo-5,6-dihydrospiro[benzo[1,2-b:5,4-b′]difuran-3,3′-indol]-1′(2′H)-yl)methyl]benzamide]
> 50% | > 250 °C | 100 to 1000 nM | O=C(NC1CCC1)c1ccc(CN2C(=O)C3(COc4cc5c(cc43)CCO5)c3ccccc32)cc1 (stereo not drawn) [Example 12.42, N-cyclobutyl-4-[(2-oxo-5,6-dihydrospiro[benzo[1,2-b:5,4-b′]difuran-3,3-indol]-1(2H)-yl)methyl]benzamide]
< 50% | > 250 °C | 100 to 1000 nM | O=C(Nc1nccs1)c1ccc(CN2C(=O)C3(COc4cc5c(cc43)CCO5)c3ccccc32)cc1 (stereo not drawn) [Example 12.43, 4-[(2′-oxo-5,6-dihydrospiro[benzo[1,2-b:5,4-b′]difuran-3,3′-indol]-1′(2′H)-yl)methyl]-N-1,3-thiazol-2-ylbenzamide]
< 50% | 143 to 144 °C | 1000 to 10000 nM | Cc1c(F)cccc1NC(=O)c1ccc(CN2C(=O)C3(COc4cc5c(cc43)CCO5)c3ccccc32)cc1 (stereo not drawn) [Example 12.44, N-(3-fluoro-2-methylphenyl)-4-[(2′-oxo-5,6-dihydrospiro[benzo[1,2-b:5,4-b′]difuran-3,3′-indol]-1′(2′H)-yl)methyl]benzamide]
< 50% | 211 to 213 °C | 1000 to 10000 nM | CCC(CC)CNC(=O)c1ccc(CN2C(=O)C3(COc4cc5c(cc43)CCO5)c3ccccc32)cc1 (stereo not drawn) [Example 12.45, N-(2-ethylbutyl)-4-[(2′-oxo-5,6-dihydrospiro[benzo[1,2-b:5,4-b′]difuran-3,3′-indol]-1′(2′H)-yl)methyl]benzamide]
